Experimental data from paper PMC7606612, “Identification of HMGA2 inhibitors by AlphaScreen-based ultra-high-throughput screening assays” (Scientific Reports, 2020).

Tests used:
[1] = target: T1, HMGA2-DNA interactions (Mus musculus, UniProt P52927); test: LANCE TR-FRET secondary assay of HMGA2 binding to FL814; parameters: species or system mammalian; concentration or dose not given beside the values; details: cherry picked primary hits
T1 construct: made in house
T1 sequence (P52927 2-108 limits assumed): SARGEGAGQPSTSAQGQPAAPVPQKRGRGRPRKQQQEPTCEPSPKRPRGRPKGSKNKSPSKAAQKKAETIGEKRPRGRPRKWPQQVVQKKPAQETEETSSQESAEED
Description: In this study, we also developed a LANCE time-resolved fluorescence energy transfer (TR-FRET) assay as a secondary assay for our screening. The His-tagged HMGA2 and biotinylated oligomer FL814 were linked to Europium-labeled anti-6 × His antibody and APC-labeled streptavidin, respectively. A series of DNA binding studies were performed to determine the optimal conditions for the secondary Assay (Fig. S2). After these experiments, 12.5 nM of FL814 and 62.5 nM of HMGA2 were chosen for the assay, which is the same for the primary assay. The assay tolerated up to 0.25% DMSO without any significant change in signal (Fig. S2c). For a counterscreen assay to exclude those compounds that nonspecifically bind to the protein surface, an AlphaScreen assay of H4 peptide binding to bromodomain-containing protein 4 (BRD4) was adopted (Fig. S2e). Since we are looking for compounds with anti-metastasis or anti-obesity activities, compounds with high levels of cytotoxicity are undesirable. […] Furthermore, potential DNA-binding compounds, i.e., DNA intercalators, minor groove binders, and DNA alkylating agents, can be identified by analyzing their chemical structures and will be excluded as well.
Using a Labcyte Echo 555 acoustic dispenser 5 nL of DMSO were added to columns 1–4 and 45–48 of a white 1536 well plate, while 5 nL of 2 mM compounds in DMSO were added to columns 5–44. Using a Beckman BioRAPTR FRD bulk reagent dispenser 1 µL of assay buffer (10 mM Tris, 300 mM NaCl and 0.005% Tween 20) was added to columns 1 and 2. Next, 1 µL of assay buffer containing 125 nM HMGA2 was added to columns 3–48 with a Beckman BioRAPTR FRD bulk reagent dispenser. Finally, 1 µL of assay buffer containing 25 nM FL814 was added to every well of the plate using a Beckman BioRAPTR FRD bulk reagent dispenser. The plate was then centrifuged at 200 × g for 1 min. After 30 min at room temperature 1 µL of assay buffer containing 250 nM LANCE Ultra ULight-anti-6xHIS and 1 µL of assay buffer containing 12 nM LANCE Eu-W1024 Streptavidin was dispensed into every well using a Beckman BioRAPTR FRD bulk reagent dispenser. The plates were then centrifuged at 200 × g for 1 min. After 1 h at room temperature the plates were read on a Perkin Elmer Envision multimode plate reader in TR-FRET mode (excitation @340 nm, first emission at @665 nm, second emission at 615 nm).

[2] = target: T1, HMGA2-DNA interactions; test: AlphaScreen primary uHTS assay of His-tagged HMGA2 binding to biotin-labeled DNA oligomer FL814; parameters: species or system mammalian; details: for inhibition of HMGA2-FL814 interactions / inhibition at 5 µM: LOPAC1280 screen, final concentration of 5 µM; for IC50: positive controls, Fig. S1e; for inhibition of HMGA2-DNA interactions (in words): confirmed hits that do not bind to DNA
Description: To address these limitations, we established a new assay using AlphaScreen technology. The assay entails binding a biotin-labeled DNA oligomer FL814 and His-tagged HMGA2 to streptavidin-coated donor beads and nickel chelate (Ni-NTA) acceptor beads, respectively (Fig. 1). A series of DNA binding studies were performed to determine the optimal conditions for the AlphaScreen Primary Assay (Fig. S1a–d). […] These two inhibitors are readily available for purchase and served as positive controls for HMGA2-DNA interaction inhibition in the assay.
Using a Labcyte Echo 555 acoustic dispenser 5 nL of DMSO were added to columns 1–4 and 45–48 of a white 1536 well plate, while 5 nL of 2 mM compounds in DMSO were added to columns 5–44. Using a Beckman BioRAPTR FRD bulk reagent dispenser 1 µL of assay buffer (30 mM Citrate, 300 mM NaCl, and 0.005% Tween 20) was added to columns 1 and 2. Next 1 µL of assay buffer containing 125 nM HMGA2 was added to columns 3–48 with a Beckman BioRAPTR FRD bulk reagent dispenser. Finally, 1 µL of assay buffer containing 25 nM FL814 was added to every well of the plate using a Beckman BioRAPTR FRD bulk reagent dispenser. The plate was then centrifuged at 200 × g for 1 min. After 30 min at room temperature, 2 µL of bead buffer (10 mM HEPES, 300 mM NaCl and 0.005% Tween 20) containing 20 µg/mL anti-6xHIS acceptor beads and 20 µg/mL streptavidin donor beads were dispensed into every well using a Beckman BioRAPTR FRD bulk reagent dispenser. The plates were then centrifuged at 200 × g for 1 min. After 1 h at room temperature the plates were read on a Perkin Elmer Envision multimode plate reader in AlphaScreen mode.

[3] = target: “AT-hook” peptide 3 (ATHP3) (Homo sapiens, UniProt P52926); test: Isothermal titration calorimetry (ITC), titration into ATHP3; assay type: binding; details: for ATHP3 Ka (M^−1) / ATHP3 Binding site: first line; for ATHP3 Binding site: number of sites
Description: (§1) ITC experiments were conducted using a VP-ITC titration calorimeter (MicroCal, Inc., Northampton, MA) interfaced to a PC. Origin 7.0, supplied by the manufacturer was used for data acquisition. […] The heat liberated or absorbed is observed as a peak corresponding to the power required keeping the sample and reference cells at identical temperatures. The peak produced during the injection is converted to heat output by integration and corrected for cell volume and sample concentration. […] The net enthalpy for the titration reaction was determined by subtraction of the component heats of dilution.

[4] = target: T1, HMGA2-DNA interactions; test: Protein-DNA interaction ELISA (PDI-ELISA) assay; assay type: binding, mammalian; details: for IC50: inhibition of HMGA2-DNA interactions, PDI-ELISA
Source text: The PDI-ELSA assays were described previously[33] and used to determine the inhibition IC50 against HMGA2-DNA interactions. The apparent inhibitory IC50 values were obtained using the following equation: y=min+(max-min/1+10^((x-logIC50)×Hillslope) , where x, y, max, and min represent the inhibitor’s concentration, the inhibition level, the maximum inhibition value, and the minimum inhibition value, respectively.

[5] = target: T2, HMGA2 (Mus musculus, UniProt P52927); test: Isothermal titration calorimetry (ITC), titration into HMGA2; assay type: binding, mammalian; details: for HMGA2 Binding site: number of sites
T2 construct: made in house
T2 sequence (P52927 2-108 limits assumed): T1 sequence (P52927 2-108 limits assumed)
Description: as §1

[6] = system: mouse pre-adipocyte 3T3-L1 cells; parameters: method as in PMID 25653160; details: cited from earlier work

N.N.O=C([O-])C1(C(=O)[O-])CCC1.[Pt+2] [carboplatin]
inhibition of HMGA2-DNA interactions [1]: ≥ 50% | inhibition of HMGA2-FL814 interactions [2]: ≥ 50%

N#CC(C#N)=C(N)/C(C#N)=C/c1cc(O)c(O)c(O)c1 [tyrphostin 51]
inhibition at 5 µM [2]: ≥ 50%

O=C(Nc1cccc(C(=O)Nc2ccc(S(=O)(=O)O)c3cc(S(=O)(=O)O)cc(S(=O)(=O)O)c23)c1)Nc1cccc(C(=O)Nc2ccc(S(=O)(=O)O)c3cc(S(=O)(=O)O)cc(S(=O)(=O)O)c23)c1 [NF023]
ATHP3 Ka (M^−1) [3]: 9.75 ± 3.47 × 10^6 M^−1 | ATHP3 Binding site [3]: 1 | IC50 [4]: 10600 ± 460 nM | HMGA2 Ka (M^−1) ([5]; first type of binding sites): 2.47 ± 4.53 × 10^6 M^−1 | HMGA2 Binding site ([5]; first type): 1.74

O=S(=O)([O-])c1cccc2ccccc12.[Na+] [sodium 1-naphthalenesulfonate]
binding to ATHP3 (in words) [3]: all these chemical compounds except sodium 1-naphthalenesulfonate strongly bind to both HMGA2 and ATHP3 | inhibition of HMGA2-DNA interactions (in words) ([4]; SAR of suramin analogues): all of these analogues except sodium 1-naphthalenesulfonate potently inhibit HMGA2-DNA interactions | binding to HMGA2 (in words) [5]: all these chemical compounds except sodium 1-naphthalenesulfonate strongly bind to both HMGA2 and ATHP3

COc1cccc2c1C(=O)c1c(O)c3c(c(O)c1C2=O)C[C@@](O)(C(C)=O)C[C@@H]3O[C@H]1C[C@H](NCc2ccc(CN[C@H]3C[C@H](O[C@H]4C[C@](O)(C(C)=O)Cc5c(O)c6c(c(O)c54)C(=O)c4c(OC)cccc4C6=O)O[C@@H](C)[C@H]3O)cc2)[C@H](O)[C@H](C)O1 [WP631]
IC50 [2]: 48 nM

O=C(Nc1cc(C(=O)Nc2ccc(S(=O)(=O)O)cc2)cc(C(=O)Nc2ccc(S(=O)(=O)O)cc2)c1)Nc1cc(C(=O)Nc2ccc(S(=O)(=O)O)cc2)cc(C(=O)Nc2ccc(S(=O)(=O)O)cc2)c1 [NF110]
ATHP3 Ka (M^−1) [3]: 2.17 ± 0.17 × 10^7 M^−1 | ATHP3 Binding site [3]: 1.01 | IC50 [4]: 870 ± 39 nM | HMGA2 Ka (M^−1) ([5]; first type of binding sites): 2.04 ± 0.48 × 10^8 M^−1 | HMGA2 Binding site ([5]; first type): 2.06 | HMGA2 Binding site ([5]; second type): 1.77 | HMGA2 Ka (M^−1) ([5]; second type of binding sites): 7.16 ± 0.67 × 10^5 M^−1

Cn1cc(NC(=O)c2cc(NC(=O)CN=C(N)N)cn2C)cc1C(=O)NCCC(=N)N [netropsin]
differentiation of 3T3-L1 cells into adipocytes [6]: strongly inhibited | IC50 [2]: 22 nM

indirubin-3′-monoxime
inhibition of HMGA2-FL814 interactions [2]: ≥ 50%

O=C1c2c(O)ccc(O)c2C(=O)c2c(NCCNCCO)ccc(NCCNCCO)c21 [mitoxantrone]
inhibition of HMGA2-DNA interactions [1]: ≥ 50% | inhibition at 5 µM [2]: ≥ 50%

O=C1c2ccccc2C(=O)c2c(NCCc3ccc(O)cc3)ccc(NCCc3ccc(O)cc3)c21 [JFD00244]
inhibition of HMGA2-FL814 interactions [2]: ≥ 50%

Nc1ccc(-c2nc3ccc(-c4nc5ccc(N)cc5[nH]4)cc3[nH]2)cc1 [Ro 90-7501]
inhibition of HMGA2-DNA interactions [1]: ≥ 50% | inhibition of HMGA2-FL814 interactions [2]: ≥ 50% | inhibition of HMGA2-DNA interactions (in words) [2]: strongly inhibit HMGA2-DNA interactions

N.N.[Cl][Pt][Cl] [cisplatin]
inhibition of HMGA2-DNA interactions [1]: ≥ 50% | inhibition of HMGA2-FL814 interactions [2]: ≥ 50%

NC(Cc1cc(O)c(O)cc1O)C(=O)O (racemic) [6-hydroxy-DL-DOPA]
inhibition of HMGA2-FL814 interactions [2]: ≥ 50%

NF546
ATHP3 Ka (M^−1) [3]: 4.28 ± 0.47 × 10^6 M^−1 | ATHP3 Binding site [3]: 0.81 | IC50 [4]: 5490 ± 2810 nM | HMGA2 Ka (M^−1) ([5]; first type of binding sites): 1.48 ± 0.47 × 10^7 M^−1 | HMGA2 Binding site ([5]; first type): 1.83 | HMGA2 Binding site ([5]; second type): 1.98 | HMGA2 Ka (M^−1) ([5]; second type of binding sites): 3.37 ± 8.81 × 10^5 M^−1

O=C(Nc1cc(C(=O)Nc2ccc(S(=O)(=O)O)cc2S(=O)(=O)O)cc(C(=O)Nc2ccc(S(=O)(=O)O)cc2S(=O)(=O)O)c1)Nc1cc(C(=O)Nc2ccc(S(=O)(=O)O)cc2S(=O)(=O)O)cc(C(=O)Nc2ccc(S(=O)(=O)O)cc2S(=O)(=O)O)c1 [NF449]
ATHP3 Ka (M^−1) [3]: 1.10 ± 7.35 × 10^11 M^−1 | ATHP3 Binding site [3]: 0.86 | IC50 [4]: 430 ± 180 nM | HMGA2 Ka (M^−1) ([5]; first type of binding sites): 5.53 ± 6.14 × 10^7 M^−1 | HMGA2 Binding site ([5]; first type): 0.89 | HMGA2 Binding site ([5]; second type): 1.63 | HMGA2 Ka (M^−1) ([5]; second type of binding sites): 8.17 ± 1.33 × 10^5 M^−1

Nc1c(S(=O)(=O)O)cc(Nc2ccc(Nc3nc(Cl)nc(Nc4cccc(S(=O)(=O)O)c4)n3)c(S(=O)(=O)O)c2)c2c1C(=O)c1ccccc1C2=O [reactive blue-2]
inhibition of HMGA2-FL814 interactions [2]: ≥ 50%

O=C(O)C1=CC(=C(c2ccc(O)c(C(=O)O)c2)c2ccc(O)c(C(=O)O)c2)C=CC1=O [aurintricarboxylic acid]
inhibition of HMGA2-DNA interactions [1]: ≥ 50% | inhibition at 5 µM [2]: ≥ 50% | inhibition of HMGA2-DNA interactions (in words) [2]: strongly inhibit HMGA2-DNA interactions

C=C1C[C@@]23CC[C@H]4[C@@](C)(CCC[C@@]4(C)C(=O)O)[C@@H]2CC[C@]1(O)C3 [steviol]
inhibition at 5 µM [2]: ≥ 50%

CN(N=O)c1ccc(O)c(O)c1 [methyl-3,4-dephostatin]
inhibition of HMGA2-FL814 interactions [2]: ≥ 50%
